# Assay results published in patent publication US20070059364A1, “Active substance combination comprising a compound with npy receptor affinity and a compound with 5-ht6 receptor affinity” (Laboratorios Del Dr. Esteve S.A., priority 2003, published 2007).
row,Compound,melting point
1,Cl.O=C(CN1CCC(N2C(=O)OCc3ccccc32)CC1)Nc1ccc2c(c1)CCC2=O,272 to 277 °C
2,Cl.O=C(CN1CCC(N2C(=O)OCc3ccccc32)CC1)Nc1ccc2c(c1)CCC2,230 to 231 °C
3,CC(C(=O)Nc1ccc2c(c1)-c1ccccc1C2=O)N1CCC(N2C(=O)OCc3ccccc32)CC1.Cl (centres unmarked),242 to 252 °C
4,CN1CC=C(c2c[nH]c3ccc(NS(=O)(=O)c4cccc5ccccc45)cc23)CC1,244 to 245 °C (dec.)
5,Cc1ccc2c(c1)COC(=O)N2C1CCN(CC(=O)Nc2ccc3c(c2)-c2ccccc2C3=O)CC1,237 to 239 °C
6,CN(C)CCn1ccc2cc(NS(=O)(=O)/C=C/c3ccccc3)ccc21,108 to 111 °C
7,CCn1c2ccccc2c2cc(NC(=O)CN3CCC(N4C(=O)OCc5cc(C)ccc54)CC3)ccc21.Cl,247 to 252 °C
8,Cc1ccc2c(c1)COC(=O)N2C1CCN(CC(=O)Nc2ccc(C3CCCCC3)cc2)CC1,155 to 157 °C
9,Cc1ccc2c(c1)COC(=O)N2C1CCN(CC(=O)Nc2ccc(C3CCCCC3)cc2)CC1.Cl,242 to 246 °C
10,Cc1ccc2c(c1)COC(=O)N2C1CCN(CC(=O)Nc2ccc(C(=O)c3ccccc3)cc2)CC1.Cl,240 to 244 °C
11,CN(C)CCc1c[nH]c2ccc(NS(=O)(=O)c3ccc(Oc4ccccc4)cc3)cc12,152 to 154 °C
12,Cl.Cn1c2ccccc2c2cc(NC(=O)CN3CCC(N4C(=O)OCc5ccccc54)CC3)ccc21,191 to 193 °C
13,Cl.O=C(CN1CCC(N2C(=O)OCc3ccccc32)CC1)Nc1ccc2c(c1)C(=O)c1ccccc1C2=O,280 to 282 °C
14,CCN(CC)CCc1c[nH]c2ccc(N(CC)S(=O)(=O)c3ccc4ccccc4c3)cc12,49 to 50 °C
15,CCN(c1ccccc1)c1ccc(NC(=O)CN2CCC(N3C(=O)OCc4ccccc43)CC2)cc1.Cl,254 to 257 °C
16,Cc1c(S(=O)(=O)Nc2ccc3[nH]cc(CCN4CCOCC4)c3c2)sc2ccc(Cl)cc12,200 to 201 °C
17,O=S(=O)(Nc1ccc2[nH]cc(CCN3CCOCC3)c2c1)c1cccc2ccccc12,218 to 220 °C
18,Cl.O=C(CN1CCC(N2C(=O)OCc3ccccc32)CC1)Nc1ccc(Oc2ccccc2)cc1,242 to 248 °C
19,CCN(CC)CCn1ccc2cc(NS(=O)(=O)c3ccc4ccccc4c3)ccc21,97 to 104 °C
20,CCN(CC)CCc1c[nH]c2ccc(NS(=O)(=O)c3cccc4ccccc34)cc12,170 °C
21,CN(C)CCn1ccc2cc(NS(=O)(=O)c3ccc4ccccc4c3)ccc21,54 to 57 °C

row,Compound,melting point
1,CC(C)N(c1ccccc1)c1ccc(NC(=O)CN2CCC(N3C(=O)OCc4ccccc43)CC2)cc1.Cl,171 to 173 °C
2,Cl.O=C(CCN1CCC(N2C(=O)OCc3ccccc32)CC1)Nc1ccc2c(c1)-c1ccccc1C2=O,240 to 242 °C
3,CCn1c2ccccc2c2cc(NC(=O)CN3CCC(N4C(=O)OCc5cc(Cl)ccc54)CC3)ccc21.Cl,265 to 268 °C
4,CCCN(CCC)CCc1c[nH]c2ccc(NS(=O)(=O)c3sc4ccc(Cl)cc4c3C)cc12,90 to 95 °C
5,Cl.O=C(CN1CCC(N2C(=O)OCc3ccccc32)CC1)Nc1ccc(Cl)cc1,272 to 276 °C
6,Cc1cc2cc(NS(=O)(=O)c3ccc4ccccc4c3)ccc2n1CCN(C)C,199 to 200 °C
7,Cl.O=C(CN1CCC(N2C(=O)OCc3cc(Cl)ccc32)CC1)Nc1ccc(Cl)cc1,279 to 282 °C
8,CCN(CC)CCc1c[nH]c2ccc(NS(=O)(=O)c3cccc4c(Cl)cccc34)cc12,154 to 156 °C
9,Cl.O=C(CN1CCC(N2C(=O)OCc3cc(Cl)ccc32)CC1)Nc1ccc2c(c1)-c1ccccc1C2=O,245 to 249 °C
10,CCN(CC)CCc1c[nH]c2ccc(NS(=O)(=O)/C=C/c3ccccc3)cc12,125 to 130 °C
11,Cc1cccc2c1N(C1CCN(CC(=O)Nc3ccc4c(c3)-c3ccccc3C4O)CC1)C(=O)OC2.Cl (centres unmarked),207 to 212 °C
12,CN1CCN(Cc2c[nH]c3ccc(NS(=O)(=O)/C=C/c4ccccc4)cc23)CC1,203 °C (dec.)
13,Cl.O=C(CN1CCC(N2C(=O)OCc3ccccc32)CC1)Nc1ccc2c(c1)C(O)c1ccccc1-2 (centres unmarked),> 225 °C (dec.)
14,Cl.O=C(CN1CCC(N2C(=O)OCc3cc(Cl)ccc32)CC1)Nc1ccc2c(c1)-c1ccccc1C2O (centres unmarked),219 to 222 °C
15,CCn1c2ccccc2c2cc(NC(=O)CN3CCC(N4C(=O)OCc5cccc(C)c54)CC3)ccc21.Cl,229 to 232 °C
16,O=S(=O)(Nc1ccc2[nH]cc(CCN3CCOCC3)c2c1)c1ccc2ccccc2c1,85 to 90 °C
17,Cc1cccc2c1N(C1CCN(CC(=O)Nc3ccc(C(F)(F)F)cc3)CC1)C(=O)OC2.Cl,264 to 274 °C
18,Cc1cccc2c1N(C1CCN(CC(=O)Nc3ccccc3)CC1)C(=O)OC2.Cl,232 to 239 °C
19,Cl.O=C(CN1CCC(N2C(=O)OCc3ccccc32)CC1)Nc1ccc(C(F)(F)F)cc1,276 to 284 °C
20,Cc1c(S(=O)(=O)Nc2ccc3[nH]cc(CCN4CCCC4)c3c2)sc2ccc(Cl)cc12,201 to 203 °C
21,O=S(=O)(Nc1ccc2c(ccn2CCCN2CCCCC2)c1)c1ccc2ccccc2c1,92 to 108 °C

row,Compound,melting point
1,Cl.O=C(CN1CCC(N2C(=O)OCc3cc(Cl)ccc32)CC1)Nc1ccc(C(F)(F)F)cc1,284 to 285 °C
2,O=S(=O)(Nc1ccc2[nH]cc(CCN3CCCC3)c2c1)c1cccc2ccccc12,212 to 214 °C
3,Cl.O=C(CN1CCC(N2C(=O)OCc3ccccc32)CC1)Nc1ccccc1,262 to 272 °C
4,O=S(=O)(Nc1ccc2[nH]cc(CCN3CCCC3)c2c1)c1ccc2ccccc2c1,180 to 182 °C
5,Cc1cccc2c1N(C1CCN(CC(=O)Nc3ccc(Cl)cc3)CC1)C(=O)OC2.Cl,245 to 253 °C
6,CCCN(CCC)CCc1c[nH]c2ccc(NS(=O)(=O)c3ccc4ccccc4c3)cc12,58 to 64 °C (dec.)
7,CN(C)CCc1c[nH]c2ccc(NS(=O)(=O)c3cccc4c(Cl)cccc34)cc12,201 to 203 °C
8,Cc1cccc2c1N(C1CCN(CC(=O)Nc3ccc(C#N)cc3)CC1)C(=O)OC2.Cl,229 to 234 °C
9,CN(C)CCc1c[nH]c2ccc(NS(=O)(=O)c3ccc4ccccc4c3)cc12,180 to 190 °C
10,Cl.N#Cc1ccc(NC(=O)CN2CCC(N3C(=O)OCc4cc(Cl)ccc43)CC2)cc1,274 to 278 °C
11,O=S(=O)(Nc1ccc2[nH]cc(CCN3CCOCC3)c2c1)c1cccc2cccnc12,234 to 235 °C
12,Cc1cccc2c1N(C1CCN(CC(=O)Nc3ccc(Oc4ccccc4)cc3)CC1)C(=O)OC2.Cl,162 to 167 °C
13,CN1CCN(CCc2c[nH]c3ccc(NS(=O)(=O)c4ccc5ccccc5c4)cc23)CC1,129 to 131 °C
14,Cl.O=C(CN1CCC(N2C(=O)OCc3cc(Cl)ccc32)CC1)Nc1ccc(Oc2ccccc2)cc1,262 to 267 °C
15,Cc1ccc2c(c1)COC(=O)N2C1CCN(CC(=O)Nc2ccccc2Cl)CC1,146 to 148 °C
16,Cc1ccc2c(c1)COC(=O)N2C1CCN(CC(=O)Nc2ccccc2C(F)(F)F)CC1,169 to 173 °C
17,CN(C)CCn1ccc2cc(NS(=O)(=O)c3ccccc3)ccc21,139 to 141 °C
18,Cc1ccc2c(c1)COC(=O)N2C1CCN(CC(=O)Nc2ccccc2)CC1,154 to 157 °C
19,Cc1cccc2c1N(C1CCN(CC(=O)Nc3ccc(C4CCCCC4)cc3)CC1)C(=O)OC2.Cl,249 to 253 °C
20,Cl.O=C(CN1CCC(N2C(=O)OCc3cc(Cl)ccc32)CC1)Nc1ccc(C2CCCCC2)cc1,249 to 256 °C
21,Cl.O=C(CN1CCC(N2C(=O)OCc3ccccc32)CC1)Nc1ccccc1C(=O)c1ccccc1,211 to 216 °C

row,Compound,melting point
1,Cc1cccc2c1N(C1CCN(CC(=O)Nc3ccccc3C(=O)c3ccccc3)CC1)C(=O)OC2.Cl,168 to 176 °C
2,Cl.O=C(CN1CCC(N2C(=O)OCc3cc(Cl)ccc32)CC1)Nc1ccccc1C(=O)c1ccccc1,167 to 178 °C
3,Cc1ccc2c(c1)COC(=O)N2C1CCN(CC(=O)Nc2ccccc2C(=O)c2ccccc2)CC1,167 to 170 °C
4,Cc1ccc2c(c1)COC(=O)N2C1CCN(CC(=O)Nc2ccc(Oc3ccccc3)cc2)CC1.Cl,234 to 237 °C
5,Cl.O=C(CN1CCC(N2C(=O)OCc3ccccc32)CC1)Nc1ccc2c(c1)-c1ccccc1C2O (centres unmarked),270 to 273 °C
6,Cl.O=C(CN1CCC(N2C(=O)OCc3cc(Cl)ccc32)CC1)Nc1ccc2c(c1)C(=O)c1ccccc1-2,> 300 °C (dec.)
7,Cc1cccc2c1N(C1CCN(CC(=O)Nc3ccc4c(c3)C(=O)c3ccccc3-4)CC1)C(=O)OC2.Cl,> 300 °C (dec.)
8,Cl.O=C(CN1CCC(N2C(=O)OCc3cc(Cl)ccc32)CC1)Nc1ccc2c(c1)C(O)c1ccccc1-2 (centres unmarked),286 to 289 °C
9,Cc1ccc2c(c1)COC(=O)N2C1CCN(CC(=O)Nc2ccc3c(c2)C(O)c2ccccc2-3)CC1.Cl (centres unmarked),196 to 199 °C
10,Cc1cccc2c1N(C1CCN(CC(=O)Nc3ccc4c(c3)C(O)c3ccccc3-4)CC1)C(=O)OC2.Cl (centres unmarked),283 to 285 °C
11,Cc1ccc2c(c1)COC(=O)N2C1CCN(CC(=O)Nc2ccc3c(c2)-c2ccccc2C3O)CC1.Cl (centres unmarked),238 to 241 °C
12,Cl.O=C(CN1CCC(N2C(=O)OCc3ccccc32)CC1)Nc1cccc2c1-c1ccccc1C2=O,270 to 273 °C
13,O=C(CN1CCC(N2C(=O)OCc3ccc(Cl)cc32)CC1)Nc1ccc2oc3ccccc3c2c1,237 °C
14,O=C(CN1CCC(N2C(=O)OCc3cc(F)ccc32)CC1)Nc1ccc2c(c1)-c1ccccc1C2=O,237 °C
15,Cc1cccc2c1COC(=O)N2C1CCN(CC(=O)Nc2ccc3[nH]c4ccccc4c3c2)CC1,213 °C
16,O=C(CN1CCC(N2C(=O)OCc3c(F)cccc32)CC1)Nc1ccc2[nH]c3ccccc3c2c1,195 °C
17,Cc1ccc2c(c1)N(C1CCN(CC(=O)Nc3ccc4c(c3)-c3ccccc3C4O)CC1)C(=O)OC2 (centres unmarked),136 °C
18,Cc1cccc2c1COC(=O)N2C1CCN(CC(=O)Nc2ccc3oc4ccccc4c3c2)CC1,204 °C
19,O=C(CN1CCC(N2C(=O)OCc3ccccc32)CC1)Nc1cccc2c1-c1ccccc1C2O (centres unmarked),209 to 210 °C
20,O=C1OCc2ccccc2N1C1CCN(S(=O)(=O)c2cccc(Cl)c2Cl)CC1,185 to 187 °C
